# Active and inactive are the calls of the source.
# Key:
# [1] = cytotoxicity in HPDE-C7 cells, cell-based, fluorescence, HTS (AID 430); type: functional; conditions: Homo sapiens
# [2] = cytotoxicity in KRAS-transformed pancreatic duct cells, primary screen, cell-based, fluorescence, HTS (AID 431); type: functional; conditions: Homo sapiens;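 note: cell line used: HPDE-C7K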
# [3] = target: Neurotensin receptor type 1 (Homo sapiens, UniProt P30989); type: functional;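 note: Image-based confirmatory dose-response assay measuring agonist activity at NTR1; NTR1-expressing U2OS osteosarcoma cells imaged for beta-arrestin GFP spot formation; agonist potency where compounds increase beta-arrestin recruitment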
# Sequence of Neurotensin receptor type 1 (P30989 whole entry): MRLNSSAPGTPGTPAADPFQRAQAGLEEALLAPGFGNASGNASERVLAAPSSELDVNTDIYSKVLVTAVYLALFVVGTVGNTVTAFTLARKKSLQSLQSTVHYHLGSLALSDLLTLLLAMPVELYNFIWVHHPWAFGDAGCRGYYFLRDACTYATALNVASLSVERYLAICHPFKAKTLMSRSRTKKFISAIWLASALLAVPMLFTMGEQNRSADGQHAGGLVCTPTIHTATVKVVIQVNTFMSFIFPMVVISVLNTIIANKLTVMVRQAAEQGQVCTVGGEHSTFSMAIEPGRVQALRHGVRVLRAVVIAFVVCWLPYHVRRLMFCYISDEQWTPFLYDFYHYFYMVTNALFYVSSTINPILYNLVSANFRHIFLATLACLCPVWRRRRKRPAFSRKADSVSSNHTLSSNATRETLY
# [4] = cytotoxicity in HEK-293T cells, dose response, cytotoxicity control for TCR NF-kB inhibitor project, luminescence, T-cell screen hits (AID 489026); type: functional, cell-based;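 note: cells exposed to compound about 14 hours before the viability readout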
# [5] = CEM21 lymphoblast cell cytotoxicity, dose response, cytotoxicity control for viral fusion inhibitor project, CellTiter-Glo luminescence, cherry-picked (AID 652042); type: functional, cell-based;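 note: potency for signal decrease meaning cytotoxicity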
# [6] = off-target signal loss in HeLa-CEM21 co-culture – HeLa F-luc CTL cells, cherry-picked, counter-screen for HIV-1 Env fusion inhibitor project, dose response (AID 652040); type: functional, cell-based;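 note: potency for signal decrease marking cytotoxic or nonspecific inhibition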
# [7] = HepG2 cell cytotoxicity, dose response, cytotoxicity control, plate reader, cherry-pick, antagonist series (AID 743416); type: functional, cell-based
# [8] = LGR2 antagonists, dose response, cell-based, HEK293, CRE-luciferase reporter, cherry pick, set 2 (AID 743343); type: functional;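 note: transfected cells were stimulated with diluted bursicon conditioned medium after compound addition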
# [9] = MC4R antagonists, dose response, counter-screen for LGR2 antagonist project, cell-based, plate reader, cherry pick (AID 743444); type: functional;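 note: transfected HEK 293 cells stimulated with alpha-MSH peptide; potency of inhibitors of the alpha-MSH evoked signal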
# [10] = HEK293 cell cytotoxicity, dose response, cytotoxicity control, plate reader, cherry-picked samples (AID 743446); type: functional, cell-based
# [11] = target: T1, Voltage-gated N-type calcium channel alpha-1B subunit/Amyloid beta A4 precursor protein-binding family A member 1 (Homo sapiens, UniProt Q00975+Q02410); type: protein assay
# T1 sequence (Q00975 whole entry): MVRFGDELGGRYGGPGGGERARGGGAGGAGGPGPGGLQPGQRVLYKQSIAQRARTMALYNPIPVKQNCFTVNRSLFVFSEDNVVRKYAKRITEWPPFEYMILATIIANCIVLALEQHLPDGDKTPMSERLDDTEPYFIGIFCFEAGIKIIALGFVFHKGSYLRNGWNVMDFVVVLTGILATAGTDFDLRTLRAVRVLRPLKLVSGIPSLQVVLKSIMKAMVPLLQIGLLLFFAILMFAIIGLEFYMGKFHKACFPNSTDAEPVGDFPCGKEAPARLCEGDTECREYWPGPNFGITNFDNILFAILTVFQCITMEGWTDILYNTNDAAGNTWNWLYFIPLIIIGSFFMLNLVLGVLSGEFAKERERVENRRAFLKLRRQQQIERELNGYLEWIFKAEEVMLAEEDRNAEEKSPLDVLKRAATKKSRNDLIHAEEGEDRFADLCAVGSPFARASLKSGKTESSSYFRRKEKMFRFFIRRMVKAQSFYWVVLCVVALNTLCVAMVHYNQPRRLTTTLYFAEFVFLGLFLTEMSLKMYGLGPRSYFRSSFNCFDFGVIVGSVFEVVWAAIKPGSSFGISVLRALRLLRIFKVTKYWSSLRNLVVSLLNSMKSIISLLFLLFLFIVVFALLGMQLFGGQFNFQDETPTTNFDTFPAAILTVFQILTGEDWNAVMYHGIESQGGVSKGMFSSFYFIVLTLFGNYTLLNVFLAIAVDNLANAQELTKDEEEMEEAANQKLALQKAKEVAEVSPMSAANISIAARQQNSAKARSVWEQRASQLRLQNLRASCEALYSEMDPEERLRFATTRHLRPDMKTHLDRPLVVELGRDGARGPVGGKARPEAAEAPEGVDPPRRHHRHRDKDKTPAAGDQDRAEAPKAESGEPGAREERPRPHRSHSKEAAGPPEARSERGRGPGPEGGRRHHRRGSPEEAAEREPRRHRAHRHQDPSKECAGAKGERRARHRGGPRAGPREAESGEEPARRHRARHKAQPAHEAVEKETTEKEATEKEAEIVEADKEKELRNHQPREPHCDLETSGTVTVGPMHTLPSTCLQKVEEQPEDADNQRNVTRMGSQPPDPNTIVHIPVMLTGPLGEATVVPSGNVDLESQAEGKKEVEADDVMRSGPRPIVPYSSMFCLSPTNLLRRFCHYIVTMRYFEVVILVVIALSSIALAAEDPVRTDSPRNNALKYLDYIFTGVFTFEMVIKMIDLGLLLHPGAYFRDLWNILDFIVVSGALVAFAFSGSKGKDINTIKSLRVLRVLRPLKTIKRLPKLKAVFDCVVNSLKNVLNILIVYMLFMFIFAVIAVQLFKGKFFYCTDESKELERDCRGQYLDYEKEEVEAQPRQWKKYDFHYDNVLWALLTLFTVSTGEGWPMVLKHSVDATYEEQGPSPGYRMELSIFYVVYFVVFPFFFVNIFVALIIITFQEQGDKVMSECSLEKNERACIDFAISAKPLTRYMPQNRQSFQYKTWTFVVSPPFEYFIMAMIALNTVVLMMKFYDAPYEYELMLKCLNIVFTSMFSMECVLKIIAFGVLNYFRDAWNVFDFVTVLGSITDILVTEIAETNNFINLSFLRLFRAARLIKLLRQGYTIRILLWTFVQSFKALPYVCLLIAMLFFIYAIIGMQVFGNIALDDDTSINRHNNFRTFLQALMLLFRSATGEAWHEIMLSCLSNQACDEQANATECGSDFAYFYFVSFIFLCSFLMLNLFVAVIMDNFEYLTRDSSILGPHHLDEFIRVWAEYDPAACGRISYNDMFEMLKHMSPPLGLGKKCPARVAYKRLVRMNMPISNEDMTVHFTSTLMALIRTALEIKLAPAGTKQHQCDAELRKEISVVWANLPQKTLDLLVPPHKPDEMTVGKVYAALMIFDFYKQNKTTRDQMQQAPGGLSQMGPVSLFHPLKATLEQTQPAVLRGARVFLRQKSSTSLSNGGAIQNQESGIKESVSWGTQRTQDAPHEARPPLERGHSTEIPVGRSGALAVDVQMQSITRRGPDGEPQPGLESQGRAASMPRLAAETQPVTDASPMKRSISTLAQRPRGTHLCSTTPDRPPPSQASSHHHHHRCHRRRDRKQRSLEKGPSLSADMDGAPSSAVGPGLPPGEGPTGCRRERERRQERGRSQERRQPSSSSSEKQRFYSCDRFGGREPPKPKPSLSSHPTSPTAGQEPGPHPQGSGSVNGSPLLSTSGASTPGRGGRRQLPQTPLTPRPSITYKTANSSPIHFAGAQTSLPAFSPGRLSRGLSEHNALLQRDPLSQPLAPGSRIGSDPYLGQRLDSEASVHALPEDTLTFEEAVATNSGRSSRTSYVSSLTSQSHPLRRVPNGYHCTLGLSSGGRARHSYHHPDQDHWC
# T1 sequence (Q02410 whole entry): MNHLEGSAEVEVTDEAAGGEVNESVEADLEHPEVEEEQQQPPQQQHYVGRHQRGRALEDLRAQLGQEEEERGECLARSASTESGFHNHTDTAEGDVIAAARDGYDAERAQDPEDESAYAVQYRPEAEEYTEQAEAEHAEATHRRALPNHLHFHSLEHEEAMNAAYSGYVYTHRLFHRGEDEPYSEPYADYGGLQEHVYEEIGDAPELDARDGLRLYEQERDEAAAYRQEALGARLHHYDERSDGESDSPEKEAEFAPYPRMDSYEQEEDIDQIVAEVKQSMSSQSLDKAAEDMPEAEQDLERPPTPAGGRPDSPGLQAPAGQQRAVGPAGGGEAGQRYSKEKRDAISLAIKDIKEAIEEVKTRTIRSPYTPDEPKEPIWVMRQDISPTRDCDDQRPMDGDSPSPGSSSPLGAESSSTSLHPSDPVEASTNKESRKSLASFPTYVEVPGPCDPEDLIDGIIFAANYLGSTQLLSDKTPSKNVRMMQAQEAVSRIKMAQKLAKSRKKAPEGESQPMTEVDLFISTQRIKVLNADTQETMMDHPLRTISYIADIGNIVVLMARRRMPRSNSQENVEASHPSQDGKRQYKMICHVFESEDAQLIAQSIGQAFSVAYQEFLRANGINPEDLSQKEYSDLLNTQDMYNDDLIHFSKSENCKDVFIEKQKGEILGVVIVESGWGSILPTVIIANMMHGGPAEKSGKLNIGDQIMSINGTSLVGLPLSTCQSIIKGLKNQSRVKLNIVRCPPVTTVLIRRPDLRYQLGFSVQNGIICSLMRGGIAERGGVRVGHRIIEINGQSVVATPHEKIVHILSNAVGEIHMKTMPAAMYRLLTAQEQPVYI
# [12] = target: T1, Voltage-gated N-type calcium channel alpha-1B subunit/Amyloid beta A4 precursor protein-binding family A member 1; type: protein assay; remark: listed apart in the source
# [13] = target: DNA dC->dU-editing enzyme APOBEC-3A (Homo sapiens, UniProt P31941); assay: Dose Response confirmation of small molecule APOBEC3A DNA Deaminase Inhibitors via a fluorescence-based single-stranded DNA deaminase assay. [Related pubchem assays (depositor defined):AID493011, AID493024]; type: functional
# Sequence of DNA dC->dU-editing enzyme APOBEC-3A (P31941 whole entry): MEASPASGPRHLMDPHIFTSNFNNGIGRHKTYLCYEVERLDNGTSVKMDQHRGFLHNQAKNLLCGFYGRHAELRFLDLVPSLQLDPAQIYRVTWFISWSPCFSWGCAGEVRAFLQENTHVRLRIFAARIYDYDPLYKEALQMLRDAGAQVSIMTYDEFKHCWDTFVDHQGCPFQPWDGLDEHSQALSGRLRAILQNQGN
# [14] = target: DNA dC->dU-editing enzyme APOBEC-3G (Homo sapiens, UniProt Q9HC16); type: functional;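 note: Dose-response counterscreen measuring inhibition of APOBEC3G DNA deaminase activity, run while confirming APOBEC3A inhibitors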
# Sequence of DNA dC->dU-editing enzyme APOBEC-3G (Q9HC16 whole entry): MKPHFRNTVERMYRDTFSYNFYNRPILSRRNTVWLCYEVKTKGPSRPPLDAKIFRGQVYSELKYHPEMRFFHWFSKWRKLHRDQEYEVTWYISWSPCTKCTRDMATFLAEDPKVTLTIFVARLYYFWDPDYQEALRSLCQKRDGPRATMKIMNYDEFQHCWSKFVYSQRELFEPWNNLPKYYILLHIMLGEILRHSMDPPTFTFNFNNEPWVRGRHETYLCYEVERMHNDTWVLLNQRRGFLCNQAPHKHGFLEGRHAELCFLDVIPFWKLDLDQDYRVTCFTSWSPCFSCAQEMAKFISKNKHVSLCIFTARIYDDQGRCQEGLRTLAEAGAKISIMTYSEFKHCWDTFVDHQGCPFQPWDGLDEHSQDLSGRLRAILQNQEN
# [15] = target: T2, Tyrosine-protein phosphatase non-receptor type 7 (Homo sapiens, UniProt P35236); type: functional
# T2 sequence (P35236 whole entry): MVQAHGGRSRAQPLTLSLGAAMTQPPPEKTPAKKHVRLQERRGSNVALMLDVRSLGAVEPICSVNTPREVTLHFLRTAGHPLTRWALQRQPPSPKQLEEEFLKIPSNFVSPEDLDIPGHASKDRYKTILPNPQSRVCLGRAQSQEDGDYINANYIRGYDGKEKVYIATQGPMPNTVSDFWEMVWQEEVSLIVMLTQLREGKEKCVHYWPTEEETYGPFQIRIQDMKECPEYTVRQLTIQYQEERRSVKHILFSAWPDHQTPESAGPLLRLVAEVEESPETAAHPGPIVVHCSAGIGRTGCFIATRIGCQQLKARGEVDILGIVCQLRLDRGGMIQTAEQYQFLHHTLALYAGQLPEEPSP
# [16] = target: T3, Tyrosine-protein phosphatase non-receptor type 22 (Homo sapiens, UniProt Q9Y2R2); type: functional
# T3 sequence (Q9Y2R2 whole entry): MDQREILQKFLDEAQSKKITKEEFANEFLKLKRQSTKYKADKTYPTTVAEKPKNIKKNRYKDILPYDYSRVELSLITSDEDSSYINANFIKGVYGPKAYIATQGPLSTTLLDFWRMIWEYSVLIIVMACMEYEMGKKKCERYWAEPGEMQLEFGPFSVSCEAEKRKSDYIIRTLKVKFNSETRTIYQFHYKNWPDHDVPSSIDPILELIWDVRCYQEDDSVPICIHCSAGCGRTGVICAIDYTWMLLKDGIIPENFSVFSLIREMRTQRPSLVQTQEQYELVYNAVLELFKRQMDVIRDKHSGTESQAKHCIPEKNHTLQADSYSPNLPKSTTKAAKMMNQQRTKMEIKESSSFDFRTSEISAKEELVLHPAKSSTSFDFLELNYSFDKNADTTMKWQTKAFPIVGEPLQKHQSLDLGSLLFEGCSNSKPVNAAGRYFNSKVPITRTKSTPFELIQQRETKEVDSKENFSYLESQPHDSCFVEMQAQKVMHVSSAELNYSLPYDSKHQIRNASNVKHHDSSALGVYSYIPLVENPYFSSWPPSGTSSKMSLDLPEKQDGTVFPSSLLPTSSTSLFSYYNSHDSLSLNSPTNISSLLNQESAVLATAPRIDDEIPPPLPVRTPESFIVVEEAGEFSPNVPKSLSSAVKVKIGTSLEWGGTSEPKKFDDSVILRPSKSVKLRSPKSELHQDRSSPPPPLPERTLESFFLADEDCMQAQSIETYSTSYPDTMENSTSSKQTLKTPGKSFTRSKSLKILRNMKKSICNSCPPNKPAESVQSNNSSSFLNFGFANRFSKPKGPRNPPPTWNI
# [17] = target: T3, Tyrosine-protein phosphatase non-receptor type 22; type: functional; remark: listed apart in the source
# Troponin, cardiac muscle = Troponin, cardiac muscle (Homo sapiens, UniProt P19429+P45379+P63316); assay: Fluorescence-based biochemical high throughput dose response assay for activators of the calcium sensitivity of cardiac Regulated Thin Filaments (RTF). [Related pubchem assays (depositor defined):AID493008, AID493018, AID504382, AID504383]; type: protein-complex assay
# [18] = target: T4, Eukaryotic translation initiation factor 2-alpha kinase 3 (Homo sapiens, UniProt Q9NZJ5); assay: Dose response cell-based high-throughput screening assay to measure PERK inhibition. [Related pubchem assays: 1416 ]; type: functional
# T4 sequence (Q9NZJ5 whole entry): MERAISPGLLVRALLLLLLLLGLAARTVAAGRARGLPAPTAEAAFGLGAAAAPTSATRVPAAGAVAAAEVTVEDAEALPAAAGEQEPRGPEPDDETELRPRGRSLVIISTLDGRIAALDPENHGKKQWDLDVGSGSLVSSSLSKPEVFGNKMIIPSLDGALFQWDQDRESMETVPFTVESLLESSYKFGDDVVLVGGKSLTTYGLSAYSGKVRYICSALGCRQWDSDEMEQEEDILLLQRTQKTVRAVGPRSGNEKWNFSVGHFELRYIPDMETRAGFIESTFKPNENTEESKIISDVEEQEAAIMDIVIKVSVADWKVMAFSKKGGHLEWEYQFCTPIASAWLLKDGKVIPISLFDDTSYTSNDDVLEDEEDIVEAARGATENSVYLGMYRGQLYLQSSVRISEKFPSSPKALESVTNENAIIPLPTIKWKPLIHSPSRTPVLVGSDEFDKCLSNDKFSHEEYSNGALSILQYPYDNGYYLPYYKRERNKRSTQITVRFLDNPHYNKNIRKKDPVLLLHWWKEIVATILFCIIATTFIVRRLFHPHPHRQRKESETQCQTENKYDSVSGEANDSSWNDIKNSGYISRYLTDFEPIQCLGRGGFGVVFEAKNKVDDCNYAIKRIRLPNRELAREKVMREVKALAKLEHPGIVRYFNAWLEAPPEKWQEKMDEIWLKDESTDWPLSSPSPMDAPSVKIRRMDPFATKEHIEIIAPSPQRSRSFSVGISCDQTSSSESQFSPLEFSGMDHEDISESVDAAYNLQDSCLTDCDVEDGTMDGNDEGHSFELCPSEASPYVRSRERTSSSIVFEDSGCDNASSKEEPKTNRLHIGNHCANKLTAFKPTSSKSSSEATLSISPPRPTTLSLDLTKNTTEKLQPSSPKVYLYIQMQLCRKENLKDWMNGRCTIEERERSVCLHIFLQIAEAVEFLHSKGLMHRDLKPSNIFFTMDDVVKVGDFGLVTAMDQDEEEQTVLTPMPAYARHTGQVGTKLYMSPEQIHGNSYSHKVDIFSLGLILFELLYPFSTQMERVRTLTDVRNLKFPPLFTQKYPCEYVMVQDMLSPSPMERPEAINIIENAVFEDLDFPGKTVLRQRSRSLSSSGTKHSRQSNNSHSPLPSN
# [19] = target: T4, Eukaryotic translation initiation factor 2-alpha kinase 3; assay: Counterscreen assay for PERK inhibitors: Dose response cell-based high throughput screening assay to measure inhibition of PERK at 6 hours. [Related pubchem assays: 1522, 1416 ]; type: functional
# Hexokinase = Hexokinase (Trypanosoma brucei, UniProt Q38C41); assay: Confirmation assay for inhibitors of Trypanosoma brucei hexokinase 1-Analogue-first series. [Related pubchem assays (depositor defined):AID1430, AID1632, AID2516, AID2560, AID2579, AID2600, AID449725, AID492951]; type: functional
# Sequence of Hexokinase (Q38C41 whole entry): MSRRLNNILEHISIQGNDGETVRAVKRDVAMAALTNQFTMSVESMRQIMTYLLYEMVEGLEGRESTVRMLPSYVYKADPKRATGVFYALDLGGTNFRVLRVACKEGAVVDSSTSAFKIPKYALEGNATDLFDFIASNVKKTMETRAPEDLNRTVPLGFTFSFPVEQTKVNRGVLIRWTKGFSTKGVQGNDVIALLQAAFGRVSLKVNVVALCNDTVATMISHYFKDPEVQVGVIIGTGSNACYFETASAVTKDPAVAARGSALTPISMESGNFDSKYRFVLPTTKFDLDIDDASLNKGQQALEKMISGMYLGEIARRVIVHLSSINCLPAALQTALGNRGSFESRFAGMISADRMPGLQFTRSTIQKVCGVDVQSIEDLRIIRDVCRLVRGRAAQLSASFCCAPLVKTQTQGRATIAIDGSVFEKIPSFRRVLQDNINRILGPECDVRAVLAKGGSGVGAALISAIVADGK
# HeLa = assay: HeLa cell cytotoxicity, dose response, cytotoxicity control, 24 h, cherry-picked samples (AID 504726); type: functional, cell-based; conditions: Homo sapiens;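 note: potency for cytotoxicity as loss of luminescence signal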
# [20] = system: Streptococcus sp. 'group A'; assay: growth inhibition of control SK(-) GAS strain, dose response, counter-screen for streptokinase expression inhibitor project, luminescence, kanamycin, BacTiterGlo, confirmation (AID 1900); type: functional, organism-based
# Streptokinase A = target: T5, Streptokinase A (Streptococcus pyogenes serotype M1, UniProt P10520); assay: S. pyogenes streptokinase expression inhibitors, potency, dose response, plasminogen activation absorbance, OD405 (AID 1914); type: functional, Streptococcus pyogenes M1 GAS;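 note: secreted streptokinase activity via plasminogen activation per viability signal from cell pellet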
# T5 sequence (P10520 whole entry): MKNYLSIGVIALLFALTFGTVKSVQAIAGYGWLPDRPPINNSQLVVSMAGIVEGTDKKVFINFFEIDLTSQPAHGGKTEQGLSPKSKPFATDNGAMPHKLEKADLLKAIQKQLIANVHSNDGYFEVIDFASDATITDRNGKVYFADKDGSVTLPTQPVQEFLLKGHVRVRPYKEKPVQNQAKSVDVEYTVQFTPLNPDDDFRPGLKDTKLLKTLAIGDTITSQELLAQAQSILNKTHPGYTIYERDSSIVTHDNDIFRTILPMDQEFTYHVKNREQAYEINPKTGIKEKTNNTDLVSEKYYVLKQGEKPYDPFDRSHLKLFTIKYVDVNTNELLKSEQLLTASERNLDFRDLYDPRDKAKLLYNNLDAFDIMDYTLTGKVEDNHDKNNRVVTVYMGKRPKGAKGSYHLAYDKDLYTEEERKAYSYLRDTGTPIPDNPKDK
# Streptococcus = assay: Group A Streptococcus viability loss, dose response, counter-screen for streptokinase expression inhibitor project, luminescence, BacTiterGlo (AID 1915); type: functional, organism-based;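 note: potency for reduction of bacterial viability or growth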
# [21] = Luminescence Cell-Based Dose Retest to Confirm Inhibitors of Cancer Stem Cells. [Related pubchem assays (depositor defined):AID2717, AID2721]; type: functional; conditions: Homo sapiens
# [22] = target: T6, Heat shock factor protein 1 (Mus musculus, UniProt P38532); assay: HSF1 potentiators in luciferase reporter cells, confirmation, cell-based, NIH3T3, luminescence, dose retest (AID 435004); type: functional;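 note: stress induced by proteasome inhibitor MG132 added 30 min after compound; luciferase reporter driven by HSF1 response element in NIH3T3 cells; actives raise luminescence as potentiators of the MG132 stress response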
# T6 sequence (P38532 whole entry): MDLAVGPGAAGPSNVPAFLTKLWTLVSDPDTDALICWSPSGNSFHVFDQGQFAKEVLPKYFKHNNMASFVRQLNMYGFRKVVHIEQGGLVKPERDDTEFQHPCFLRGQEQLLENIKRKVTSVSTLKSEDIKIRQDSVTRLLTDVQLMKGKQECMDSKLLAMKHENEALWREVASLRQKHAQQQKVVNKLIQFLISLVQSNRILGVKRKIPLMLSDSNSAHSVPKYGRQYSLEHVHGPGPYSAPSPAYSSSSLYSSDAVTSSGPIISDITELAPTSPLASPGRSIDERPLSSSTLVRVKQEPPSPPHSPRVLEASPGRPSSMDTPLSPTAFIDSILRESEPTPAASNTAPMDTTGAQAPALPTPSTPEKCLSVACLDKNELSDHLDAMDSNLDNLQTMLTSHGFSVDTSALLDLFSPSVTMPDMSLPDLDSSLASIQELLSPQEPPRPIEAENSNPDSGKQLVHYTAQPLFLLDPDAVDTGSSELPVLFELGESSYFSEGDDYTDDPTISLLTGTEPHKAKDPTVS
smiles,measurement,setting,value
Cc1ccc(-n2ncc3c(N4CCN(c5ccccc5)CC4)ncnc32)c(C)c1,EC50,[1],13.8 µM (active)
same,EC50,[2],8.48 µM (active)
same,EC50,[3],9.82 µM (active)
same,IC50,[4],29.6 µM (inactive)
same,AC50,[5],17.7 µM (active)
same,AC50,[6],32.4 µM (active)
same,AC50,[7],34.7 µM (active)
same,AC50,[8],13.8 µM (active)
same,AC50,[9],16.5 µM (active)
same,AC50,[10],14.4 µM (active)
C=C(C)C(=O)Nc1cccc(C2=NOC3(C2)C[C@@H](C(N)=O)N(C(=O)c2ccc(OC)cc2)C3)c1 (stereo partly specified),IC50,[11],> 56.8 µM (not active)
same,IC50,[12],> 50 µM (inactive)
same,IC50,cells,38.9 µM (active)
Cn1c(CNC(=O)c2ccco2)nnc1SCC(=O)N1c2ccccc2Sc2ccccc21,IC50,[13],4 µM (active)
same,IC50,[14],5.8 µM (active)
CCC1CCCCN1CCCNC(=O)c1ccc(CS(=O)(=O)Cc2ccccc2F)o1 (stereo unspecified),IC50,[15],> 79.4 µM (inactive)
same,IC50,[16],> 79.4 µM (inactive)
same,IC50,[17],> 79.4 µM (inactive)
CC(C)Sc1nc2cc(Br)ccc2[nH]1,EC50,"Troponin, cardiac muscle",> 71.4 µM (inactive)
COC(=O)Cc1ccc(NC(S)=NNC(=O)C2CC2)cc1,EC50,[18],> 55.7 µM (not active)
same,EC50,[19],> 55.7 µM (not active)
CCc1ccc(-n2c(SCC(=O)N3Cc4ccccc4CC3C(=O)O)nnc2-c2ccncc2)cc1 (stereo unspecified),EC50,[18],> 55.7 µM (not active)
same,EC50,[19],> 55.7 µM (not active)
CC(=O)Nc1cc(Cl)ccc1C(=O)O,IC50,Hexokinase,> 25 µM (inactive)
CSc1ncccc1C(=O)OCCCC(=O)c1ccc(F)cc1,AC50,HeLa,91.9 µM (active)
O=C(O)c1ccc(Cl)cc1NC(=O)c1coc2ccccc12,IC50,Hexokinase,> 25 µM (inactive)
O=c1/c(=C\c2cccc(O)c2)sc2nc(-c3ccccc3)c(-c3ccccc3)n12,EC50,[20],3.01 µM (active)
same,EC50,Streptokinase A,4.22 µM (active)
same,EC50,Streptococcus,51.1 µM (active)
same,AC50,[21],2.59 µM (active)
same,EC50,[3],27.2 µM (inactive)
Cc1cc(C)cc(OCC(=O)N/N=C\c2cn(C)nc2C)c1,IC50,[15],> 79.4 µM (inactive)
same,IC50,[16],> 79.4 µM (inactive)
same,IC50,[17],> 79.4 µM (inactive)
Cn1c(=O)c2c(nc(N/N=C/c3ccc(OC(=O)c4ccco4)cc3)n2Cc2ccc(F)cc2)n(C)c1=O,AC50,HeLa,43.7 µM (active)
same,EC50,[22],3.74 µM (active)

# Source: ChEMBL document CHEMBL1201862, “PubChem BioAssay data set” (2004)
